{"source": "ChEMBL document CHEMBL6177994", "about": "(J Med Chem, 2025)", "key": {"[1]": {"test_system": "Protein cereblon/GTPase KRas (Homo sapiens), P01116+Q96SW2 [G12D]", "sequence (P01116 whole entry G12D)": "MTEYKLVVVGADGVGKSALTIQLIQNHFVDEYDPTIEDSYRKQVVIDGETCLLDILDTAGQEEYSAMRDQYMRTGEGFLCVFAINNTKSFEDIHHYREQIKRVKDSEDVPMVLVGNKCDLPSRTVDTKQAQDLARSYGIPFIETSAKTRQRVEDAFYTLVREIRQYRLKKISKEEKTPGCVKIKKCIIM", "sequence (Q96SW2 whole entry partner)": "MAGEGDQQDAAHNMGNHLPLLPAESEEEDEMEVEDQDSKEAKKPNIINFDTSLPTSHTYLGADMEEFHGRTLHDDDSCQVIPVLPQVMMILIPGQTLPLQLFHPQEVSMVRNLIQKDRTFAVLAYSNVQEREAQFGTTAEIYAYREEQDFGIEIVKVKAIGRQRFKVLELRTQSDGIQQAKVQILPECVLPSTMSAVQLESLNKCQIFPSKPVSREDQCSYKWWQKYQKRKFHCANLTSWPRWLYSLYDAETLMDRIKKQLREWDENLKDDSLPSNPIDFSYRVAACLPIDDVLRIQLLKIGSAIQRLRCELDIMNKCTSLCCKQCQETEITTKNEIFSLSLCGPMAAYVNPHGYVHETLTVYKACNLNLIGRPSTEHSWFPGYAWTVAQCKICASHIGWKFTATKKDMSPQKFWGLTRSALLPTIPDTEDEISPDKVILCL", "assay": "PROTAC activity at CRBN/KRAS G12D mutant in human ASPC1 cells assessed as induction of KRAS G12D mutant degradation at 1 nM measured after 12 hrs by immunoblot analysis relative to control", "type": "cell-based"}, "PK-59": {"test_system": "PK-59", "assay": "PROTAC activity at CRBN/KRAS G12D mutant in human PK-59 cells assessed as induction of KRAS G12D mutant degradation 0.01 to 100 nM measured after 24 hrs by immunoblot analysis", "type": "cell-based", "settings": "dose 0.01-100 nM"}, "ASPC1 [2]": {"test_system": "ASPC1", "assay": "Effect on GSPT1 level in human ASPC1 cells at 10 nM measured after 8 hrs by Western blot analysis", "type": "functional, cell-based"}, "ASPC1 [3]": {"test_system": "ASPC1", "assay": "Antiproliferative activity against human ASPC1 cells harbouring KRAS G12D mutant assessed as inhibition of cell growth measured after 72 hrs by Cell titer glo method", "type": "functional, cell-based", "settings": "ASPC1, 72 h"}, "A-427": {"test_system": "A-427", "assay": "Antiproliferative activity against human A-427 cells harbouring KRAS G12D mutant assessed as inhibition of cell growth measured after 72 hrs by Cell titer glo method", "type": "functional, cell-based"}, "SW1990": {"test_system": "SW1990", "assay": "Antiproliferative activity against human SW1990 cells harbouring KRAS G12D mutant assessed as inhibition of cell growth measured after 72 hrs by Cell titer glo method", "type": "functional, cell-based"}, "CCRF-CEM": {"test_system": "CCRF-CEM", "assay": "Antiproliferative activity against human CCRF-CEM cells harbouring KRAS G12D mutant assessed as inhibition of cell growth measured after 72 hrs by Cell titer glo method", "type": "functional, cell-based"}, "HCC1588": {"test_system": "HCC1588", "assay": "Antiproliferative activity against human HCC1588 cells harbouring KRAS G12D mutant assessed as inhibition of cell growth measured after 72 hrs by Cell titer glo method", "type": "functional, cell-based"}, "[4]": {"test_system": "Protein cereblon/GTPase KRas (Homo sapiens), P01116+Q96SW2 [G12D]", "assay": "PROTAC activity at CRBN/KRAS G12D mutant in human ASPC1 cells assessed as induction of KRAS G12D mutant degradation at 5 nM preincubated with CRBN ligand followed by compound addition and measured after 24 hrs by Western blot analysis", "type": "cell-based"}, "[5]": {"test_system": "Protein cereblon/GTPase KRas (Homo sapiens), P01116+Q96SW2 [G12D]", "assay": "PROTAC activity at CRBN/KRAS G12D mutant in human ASPC1 cells assessed as induction of KRAS G12D mutant degradation at 5 nM preincubated with MG132 followed by compound addition and measured after 24 hrs by Western blot analysis", "type": "cell-based"}, "[6]": {"assay": "Antitumor activity against human PK-59 cells xenografted in female Balb/c nude mouse model assessed as tumor growth inhibition at 1 mg/kg, iv QW measured after 28 days relative to control", "type": "functional", "settings": "PK-59, 672 h, time 28 day, read-out: TGI"}, "[7]": {"assay": "Toxicity in female Balb/c nude mouse xenografted with human GP2d cells assessed as change in body weight at 1 to 10 mg/kg, iv QW measured after 28 days", "type": "organism-based", "settings": "in vivo, 672 h, dose 1-10 mg/kg, time 28 day"}, "[8]": {"assay": "Toxicity in female Balb/c nude mouse xenografted with human GP2d cells assessed as drug tolerance at 1 to 10 mg/kg, iv QW measured after 28 days", "type": "organism-based", "settings": "in vivo, 672 h, dose 1-10 mg/kg, time 28 day"}, "SNU-407": {"test_system": "SNU-407", "assay": "Antitumor activity against human SNU-407 cells harbouring KRAS G12D mutant xenografted in female Balb/c nude mouse model assessed as tumor regression at 1 to 10 mg/kg, iv QW administered weekly and measured after 28 days", "type": "functional, organism-based", "settings": "dose 1-10 mg/kg, time 28.0 day"}, "[9]": {"assay": "Antitumor activity against human Panc 04.03 cells harbouring KRAS G12D mutant xenografted in female Balb/c nude mouse model assessed as tumor regression at 1 to 10 mg/kg, iv QW administered weekly and measured after 28 days relative to control", "type": "functional", "settings": "dose 1-10 mg/kg, time 28 day"}, "[10]": {"assay": "Drug concentration in male Balb/c nude mouse plasma xenografted with human PK-59 cells at 10 mg/kg, iv administered as single dose measured after 168 hrs by LC-MS/MS analysis", "type": "ADME, organism-based"}, "[11]": {"test_system": "Protein cereblon/GTPase KRas (Homo sapiens), P01116+Q96SW2 [G12D]", "assay": "In vivo PROTAC activity at CRBN/KRAS G12D mutant in male Balb/c nude mouse xenografted with human GP2d cells assessed as inhibition of ERK phosphorylation level at 10 mg/kg, iv measured after 7 days", "type": "functional, organism-based", "settings": "time 7.0 day"}, "[12]": {"assay": "Stability in rat plasma assessed as half life at 1 uM measured up to 120 mins by LC-MS/MS analysis", "type": "ADME, cell-free"}, "[13]": {"assay": "Metabolic stability in mouse liver microsomes assessed as half life at 1 uM preincubated for 3 mins with NADPH and measured up to 60 mins by LC-MS/MS analysis", "type": "ADME, Microsome", "settings": "time < 63 min"}, "[14]": {"assay": "Metabolic stability in rat liver microsomes assessed as half life at 1 uM preincubated for 3 mins with NADPH and measured up to 60 mins by LC-MS/MS analysis", "type": "ADME, Microsome", "settings": "time < 63 min"}, "[15]": {"assay": "Metabolic stability in dog liver microsomes assessed as half life at 1 uM preincubated for 3 mins with NADPH and measured up to 60 mins by LC-MS/MS analysis", "type": "ADME, Canis lupus familiaris, Microsome", "settings": "time < 63 min"}, "[16]": {"assay": "Metabolic stability in human liver microsomes assessed as half life at 1 uM preincubated for 3 mins with NADPH and measured up to 60 mins by LC-MS/MS analysis", "type": "ADME, Microsome", "settings": "time < 63 min"}, "[17]": {"assay": "Metabolic stability in mouse liver microsomes assessed as intrinsic clearance at 1 uM preincubated for 3 mins with NADPH and measured up to 60 mins by LC-MS/MS analysis", "type": "ADME, Microsome", "settings": "time < 63 min, read-out: CLH"}, "[18]": {"assay": "Metabolic stability in dog liver microsomes assessed as intrinsic clearance at 1 uM preincubated for 3 mins with NADPH and measured up to 60 mins by LC-MS/MS analysis", "type": "ADME, Canis lupus familiaris, Microsome", "settings": "time < 63 min, read-out: CLH"}, "[19]": {"assay": "Metabolic stability in monkey liver microsomes assessed as intrinsic clearance at 1 uM preincubated for 3 mins with NADPH and measured up to 60 mins by LC-MS/MS analysis", "type": "ADME, Macaca mulatta, Microsome", "settings": "rhesus monkey, time < 63 min, read-out: CLH"}, "[20]": {"assay": "Stability in human hepatocyte assessed as half life at 100 uM measured up to 120 mins by LC-MS/MS analysis", "type": "ADME, cell-based", "settings": "hepatocytes"}, "[21]": {"assay": "Stability in human hepatocyte assessed as intrinsic clearance at 100 uM measured up to 120 mins by LC-MS/MS analysis", "type": "ADME, cell-based", "settings": "hepatocytes, read-out: CLH"}, "Cytochrome P450 2C9": {"biological_target": "Cytochrome P450 2C9 (Homo sapiens, UniProt P11712)", "sequence (P11712 whole entry)": "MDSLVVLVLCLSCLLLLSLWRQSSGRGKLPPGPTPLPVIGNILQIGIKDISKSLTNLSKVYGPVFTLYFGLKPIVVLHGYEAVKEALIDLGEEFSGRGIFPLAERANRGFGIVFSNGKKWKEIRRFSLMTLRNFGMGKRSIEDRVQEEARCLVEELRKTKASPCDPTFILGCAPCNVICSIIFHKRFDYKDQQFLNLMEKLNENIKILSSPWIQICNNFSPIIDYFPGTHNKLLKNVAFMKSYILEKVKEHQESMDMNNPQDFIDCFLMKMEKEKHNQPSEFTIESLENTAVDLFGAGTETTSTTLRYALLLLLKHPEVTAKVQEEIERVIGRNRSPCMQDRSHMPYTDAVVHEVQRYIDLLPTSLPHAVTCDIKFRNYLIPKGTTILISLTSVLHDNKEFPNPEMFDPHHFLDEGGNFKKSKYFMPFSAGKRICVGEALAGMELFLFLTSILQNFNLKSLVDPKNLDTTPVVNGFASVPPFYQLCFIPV", "assay": "Inhibition of CYP2C9 in human liver microsomes using diclofenac as substrate at 10 uM incubated for 15 mins in presence of NADPH by LC/MS analysis", "type": "ADME, Microsome", "settings": "0.25 h"}, "Cytochrome P450 3A4": {"biological_target": "Cytochrome P450 3A4 (Homo sapiens, UniProt P08684)", "sequence (P08684 whole entry)": "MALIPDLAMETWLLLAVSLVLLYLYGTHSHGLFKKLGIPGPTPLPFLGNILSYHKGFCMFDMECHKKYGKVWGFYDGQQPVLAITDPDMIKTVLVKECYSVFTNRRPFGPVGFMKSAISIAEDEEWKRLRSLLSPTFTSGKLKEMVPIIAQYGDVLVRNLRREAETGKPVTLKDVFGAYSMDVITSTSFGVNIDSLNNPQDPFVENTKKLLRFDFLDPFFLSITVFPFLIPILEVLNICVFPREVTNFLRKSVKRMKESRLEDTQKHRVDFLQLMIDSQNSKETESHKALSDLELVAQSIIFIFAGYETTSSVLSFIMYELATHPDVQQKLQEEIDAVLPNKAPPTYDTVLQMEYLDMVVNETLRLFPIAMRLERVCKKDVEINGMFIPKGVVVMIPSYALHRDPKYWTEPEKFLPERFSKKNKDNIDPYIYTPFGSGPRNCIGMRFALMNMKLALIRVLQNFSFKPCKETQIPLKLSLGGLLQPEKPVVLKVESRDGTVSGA", "assay": "Inhibition of CYP3A4 in human liver microsomes using testosterone as substrate at 10 uM incubated for 15 mins in presence of NADPH by LC/MS analysis", "type": "ADME, Microsome", "settings": "0.25 h"}, "[22]": {"assay": "Half life in male Beagle dog at 1 mg/kg, iv measured up to 24 hrs by LC-MS/MS analysis", "type": "ADME, organism-based, Canis lupus familiaris", "settings": "in vivo"}, "[23]": {"assay": "AUC (0 to t) in male Beagle dog at 1 mg/kg, iv measured up to 24 hrs by LC-MS/MS analysis", "type": "ADME, organism-based, Canis lupus familiaris", "settings": "in vivo"}, "[24]": {"assay": "Volume of distribution at steady state in male Beagle dog at 1 mg/kg, iv measured up to 24 hrs by LC-MS/MS analysis", "type": "ADME, organism-based, Canis lupus familiaris", "settings": "in vivo, read-out: Vdss"}, "[25]": {"assay": "Volume of distribution at steady state in male cynomolgus monkey at 1 mg/kg, iv measured up to 24 hrs by LC-MS/MS analysis", "type": "ADME, organism-based, Macaca fascicularis", "settings": "in vivo, read-out: Vdss"}}, "note": "Activity calls are given as the source filed them. No cut-off for these calls is given here.", "data": [{"smiles": "C#Cc1c(F)ccc2cc(O)cc(-c3ncc4c(N5CC6CCC(C5)N6)nc(OCC5(CN6CCC7(CC6)CC(N6CCC(c8cc9c(cc8F)c(N8CCC(=O)NC8=O)nn9C)CC6)C7)CC5)nc4c3F)c12", "values": [{"measurement": "Activity", "setting": "[1]", "value": 70, "unit": "%"}, {"measurement": "Activity", "setting": "PK-59", "value": "Active"}, {"measurement": "Activity", "setting": "ASPC1 [2]", "value": "inactive"}, {"measurement": "IC50", "setting": "ASPC1 [3]", "value": 4.19, "unit": "nM"}, {"measurement": "Activity", "setting": "A-427", "value": "Active; Compound Showed Stronger Antiproliferative Activity Compared To Mrtx1133"}, {"measurement": "Activity", "setting": "SW1990", "value": "Active; Compound Showed Stronger Antiproliferative Activity Compared To Mrtx1133"}, {"measurement": "Activity", "setting": "CCRF-CEM", "value": "Active; Compound Showed Stronger Antiproliferative Activity Compared To Mrtx1133"}, {"measurement": "Activity", "setting": "HCC1588", "value": "Active; Compound Showed Stronger Antiproliferative Activity Compared To Mrtx1133"}, {"measurement": "Activity", "setting": "[4]", "value": "Active"}, {"measurement": "Activity", "setting": "[5]", "value": "inactive"}, {"measurement": "inhibition in vivo at 1 mg/kg", "setting": "[6]", "value": 98, "unit": "%"}, {"measurement": "Activity", "setting": "[7]", "value": "Non-toxic"}, {"measurement": "Activity", "setting": "[8]", "value": "Non-toxic"}, {"measurement": "Activity", "setting": "SNU-407", "value": "Weak_effect"}, {"measurement": "Activity", "setting": "[9]", "value": ">30", "unit": "%"}, {"measurement": "concentration at 168 h", "setting": "[10]", "value": 5.3, "unit": "ng/mL"}, {"measurement": "Activity", "setting": "[11]", "value": "Active"}, {"measurement": "half-life at 1 µM", "setting": "[12]", "value": 12.8, "unit": "h"}, {"measurement": "half-life at 1 µM", "setting": "[13]", "value": 7.22, "unit": "h"}, {"measurement": "half-life at 1 µM", "setting": "[14]", "value": 2.52, "unit": "h"}, {"measurement": "half-life at 1 µM", "setting": "[15]", "value": 7.22, "unit": "h"}, {"measurement": "half-life at 1 µM", "setting": "[16]", "value": 2.57, "unit": "h"}, {"measurement": "CLint scaled at 1 µM", "setting": "[17]", "value": 12.7, "unit": "mL/min/kg"}, {"measurement": "CLint scaled at 1 µM", "setting": "[18]", "value": 4.6, "unit": "mL/min/kg"}, {"measurement": "CLint scaled at 1 µM", "setting": "[19]", "value": 4.3, "unit": "mL/min/kg"}, {"measurement": "half-life at 100 µM", "setting": "[20]", "value": 7.27, "unit": "h"}, {"measurement": "CLint scaled at 100 µM", "setting": "[21]", "value": 5.8, "unit": "mL/min/kg"}, {"measurement": "inhibition (INH)", "setting": "Cytochrome P450 2C9", "value": "Not_active"}, {"measurement": "inhibition (INH)", "setting": "Cytochrome P450 3A4", "value": "Not_active"}, {"measurement": "half-life", "setting": "[22]", "value": 15.6, "unit": "h"}, {"measurement": "AUC(0-t) at 24 h", "setting": "[23]", "value": 0.458, "unit": "µM·h"}, {"measurement": "Vd", "setting": "[24]", "value": 16, "unit": "L/kg"}, {"measurement": "Vd", "setting": "[25]", "value": 12.7, "unit": "L/kg"}]}]}
